Among the test systems are CCRF-CEM leukemia; HL-60(TB) leukemia; M14 melanoma; MDA-MB-435; MOLT-4 leukemia; OVCAR-4 ovarian; RPMI-8226 leukemia; SF-268 CNS; SN12C renal; UACC-62 melanoma.
Common to all, as to experiment: NCI-60 cell line screen, 48 h

GI50 and TGI data for seven compounds are collected here from PubChem BioAssay (NCI).

Several values for one entry are separate records, joined by “and”; a condition that tells them apart may be missing. Equal entries are not always repeated.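 The compound was tested at five concentrations on cells cultured in 96-well plates, with a 48-hour exposure period. GI50: concentration for 50% inhibition of growth. TGI: concentration producing complete growth inhibition.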 *1 amine or outer side, *2 acyl side, *3 side chain or, on linkers, in order; H or OH if unused. Where a SMILES comes first, the peptide text is derived from it. Bridges are numbered along the chain shown (N, C = ends). [ ]: non-standard residue; d: D form. The star is where a group is joined. Phe(3,5-F2) = N[C@@H](Cc1cc(F)cc(F)c1)C(=O)O; Pro(4R-Me) = C[C@H]1CN[C@H](C(=O)O)C1; aThr = C[C@H](O)[C@H](N)C(=O)O; Pip = O=C(O)[C@@H]1CCCCN1; X10 = Fc1cc(C2CC2)ccc1N*; CO = O=C([*:1])[*:2] Some results are limits rather than exact numbers.

Take `O=C(Nc1ccc(F)cc1)Nc1ccc(Cl)c([N+](=O)[O-])c1`: the GI50 with CCRF-CEM leukemia was 3300 nM; in the test on HL-60(TB) leukemia it was 2500 nM; in the test on M14 melanoma it was 3.14 µM; in the test on MDA-MB-435, 3070 nM; in the test with MOLT-4 leukemia it was 3.13 µM; in the test on OVCAR-4 ovarian it was 2.78 µM. The GI50 was 1890 nM in the test with RPMI-8226 leukemia, 4.42 µM with SF-268 CNS, 2950 nM in the test on SN12C renal and 3.04 µM with UACC-62 melanoma. Moreover, the TGI with CCRF-CEM leukemia was more than 100 µM; in the test on HL-60(TB) leukemia, 8.56 µM; in the test on M14 melanoma, 12.3 µM; in the test on MDA-MB-435, 11.6 µM; in the test on MOLT-4 leukemia, 92.9 µM; in the test with OVCAR-4 ovarian, 14 µM. Besides, the TGI in the test on RPMI-8226 leukemia came out at 8.58 µM; in the test with SF-268 CNS, 17.3 µM; in the test on SN12C renal it was 11.7 µM; in the test on UACC-62 melanoma it was 13.2 µM.

With `Nc1ccccc1C#C/C=C\C#Cc1ccccc1OC(F)(F)F`, the GI50 in the test with CCRF-CEM leukemia is 1110 nM; in the test on HL-60(TB) leukemia it was 2080 nM; in the test on M14 melanoma it was 3.86 µM; in the test on MDA-MB-435, 1390 nM; in the test with MOLT-4 leukemia, 2.91 µM; with OVCAR-4 ovarian, 11.6 µM. Also, the GI50 is 3550 nM in the test with RPMI-8226 leukemia, 6.44 µM in the test with SF-268 CNS, 9850 nM with SN12C renal and 5.94 µM in the test on UACC-62 melanoma. Also, the TGI was 23.2 µM in the test with CCRF-CEM leukemia; 11.1 µM in the test with HL-60(TB) leukemia; 17.8 µM in the test on M14 melanoma; 6.04 µM in the test with MDA-MB-435; 24.1 µM in the test on MOLT-4 leukemia; 42 µM in the test with OVCAR-4 ovarian. The TGI in the test on RPMI-8226 leukemia came out at 18 µM; with SF-268 CNS it was 32 µM; with SN12C renal it was 26.8 µM; in the test with UACC-62 melanoma, 21 µM.

`O=C(Nc1ccccc1)c1c(O)[nH]c(=S)[nH]c1=O`: the GI50 in the test with CCRF-CEM leukemia was 71200 nM; with HL-60(TB) leukemia it was 80400 nM; in the test on MOLT-4 leukemia it was 40 µM; in the test with OVCAR-4 ovarian it was 87.2 µM; with UACC-62 melanoma it was 33 µM. Further, the TGI was 83.3 µM and > 250 µM with CCRF-CEM leukemia; 67.3 µM and > 250 µM with HL-60(TB) leukemia; 108 µM in the test with M14 melanoma; 46.8 µM in the test with MDA-MB-435; 53.2 µM and 96.4 µM in the test with MOLT-4 leukemia; 103 µM and > 250 µM in the test with OVCAR-4 ovarian. Moreover, the TGI in the test on RPMI-8226 leukemia is 79 µM and > 25 µM; in the test with SF-268 CNS, 125 µM; in the test on SN12C renal, 112 µM; with UACC-62 melanoma, 55.2 µM and 162 µM.

With `Cc1cc(-c2nc(C(=O)Nc3cc4oc(N5CCOCC5)nc4nc3N3CC[C@@H](O)C3)co2)ccn1`, the GI50 was 29400 nM with CCRF-CEM leukemia; 35200 nM in the test with HL-60(TB) leukemia; 35.9 µM in the test with M14 melanoma; 40700 nM with MDA-MB-435; 38.3 µM with MOLT-4 leukemia; 32.1 µM in the test on OVCAR-4 ovarian. For the same compound, the GI50 with RPMI-8226 leukemia is 25800 nM; in the test with SF-268 CNS, 61.7 µM; in the test on SN12C renal it was 26000 nM; with UACC-62 melanoma it was 57 µM. The TGI in the test on CCRF-CEM leukemia, in the test with HL-60(TB) leukemia, in the test with M14 melanoma, in the test with MDA-MB-435, in the test on MOLT-4 leukemia and in the test with OVCAR-4 ovarian was more than 100 µM each time. The TGI in the test with RPMI-8226 leukemia, in the test on SF-268 CNS, in the test with SN12C renal and in the test on UACC-62 melanoma was more than 100 µM each time.

Turning to `O=[N+]([O-])c1cccc(-c2csc(NNC3=NC/C(=C/c4ccc5c(c4)OCO5)S3)n2)c1`, the TGI was more than 100 µM with CCRF-CEM leukemia; more than 100 µM with HL-60(TB) leukemia; 96 µM in the test with M14 melanoma; more than 100 µM with MDA-MB-435; more than 100 µM with MOLT-4 leukemia; more than 100 µM in the test with OVCAR-4 ovarian. Also, the TGI was 93.5 µM with RPMI-8226 leukemia, 69 µM with SF-268 CNS, more than 100 µM with SN12C renal and 56.5 µM in the test on UACC-62 melanoma.

With `C[C@@H]1C[C@H]2C(=O)O[C@@H](C)[C@H](NC(=O)[C@H](Cc3cc(F)cc(F)c3)NC(=O)Nc3ccc(C4CC4)cc3F)C(=O)N3CCC[C@H]3C(=O)N3CCCC[C@H]3C(=O)N[C@@H](C)C(=O)N2C1` ({X10-CO}-[Phe(3,5-F2)][aThr]P[Pip]A[Pro(4R-Me)]; ester 2-C), the GI50 was 52.2 nM in the test on CCRF-CEM leukemia; 38.7 nM with HL-60(TB) leukemia; 0.0436 µM in the test with M14 melanoma; 42.3 nM in the test with MDA-MB-435; 0.205 µM in the test on MOLT-4 leukemia; 0.033 µM in the test on OVCAR-4 ovarian. Besides, the GI50 in the test on RPMI-8226 leukemia is 28.7 nM; with SF-268 CNS it was 0.049 µM; with SN12C renal, 40.1 nM; in the test with UACC-62 melanoma it was 0.0512 µM. Besides, the TGI was more than 100 µM in the test on CCRF-CEM leukemia; 1.82 µM in the test with HL-60(TB) leukemia; 2.41 µM in the test on M14 melanoma; 2.71 µM in the test on MDA-MB-435; more than 42.7 µM in the test on MOLT-4 leukemia; 3.84 µM with OVCAR-4 ovarian. In addition, the TGI in the test with RPMI-8226 leukemia was 0.878 µM; in the test with SF-268 CNS, more than 46.9 µM; in the test on SN12C renal it was 42.7 µM; with UACC-62 melanoma it was 4.37 µM.

With `COc1cc(/C=N\NC(=O)CN2CCN(c3cc4c(cc3F)c(=O)c(C(=O)N/N=C/c3cc(OC)c(OC)c(OC)c3)cn4C3CC3)CC2)cc(OC)c1OC`, the GI50 is 316 nM in the test with CCRF-CEM leukemia; 320 nM in the test on HL-60(TB) leukemia; 0.429 µM in the test on M14 melanoma; 237 nM in the test with MDA-MB-435; 0.331 µM in the test with MOLT-4 leukemia; 0.379 µM with OVCAR-4 ovarian. The GI50 is 299 nM in the test with RPMI-8226 leukemia, 0.292 µM with SF-268 CNS, 225 nM with SN12C renal and 0.231 µM with UACC-62 melanoma. Further, the TGI in the test on CCRF-CEM leukemia was more than 100 µM; in the test with HL-60(TB) leukemia, more than 31.7 µM; with M14 melanoma, more than 49.5 µM; in the test with MDA-MB-435, 0.559 µM; in the test on MOLT-4 leukemia it was more than 100 µM; in the test on OVCAR-4 ovarian, more than 100 µM. For the same compound, the TGI in the test with SN12C renal stood at 0.601 µM; in the test with UACC-62 melanoma, 0.583 µM.
